# Data from PubChem BioAssay AID2060493 (Molecular Pharmacology Branch, DTP, NCI, 2025).
# pIC50: −log10 of the molar value.
# System: 616215-338-R-J1-PDC tumor spheroids, viability
# Assay: Anticancer human tumor 616215-338-R-J1-PDC patient-derived colon adenocarcinoma cell line growth inhibition [GQUAD]
# Conditions: spheroids with HUVEC and MSC; for pIC50: curve of first compound; for viability, T/C: stronger effect = lower value
# Outline: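 Viability of tumor cells grown as complex spheroids with endothelial and stromal cells, exposed to drug combinations. Top concentration at or near clinical Cmax (else 10 microM), diluted in half-log increments.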
# [1] = second compound 0.0316 µM, first compound 0.0316 µM
# [2] = second compound 0.0316 µM, first compound 0.1 µM
# [3] = second compound 0.0316 µM, first compound 0.316 µM
# [4] = second compound 0.0316 µM, first compound 1 µM
# [5] = second compound 0.0316 µM, first compound 3.16 µM
# [6] = second compound 0.0316 µM, first compound 10 µM
# [7] = second compound 0.1 µM, first compound 0.0316 µM
# [8] = second compound 0.1 µM, first compound 0.1 µM
# [9] = second compound 0.1 µM, first compound 0.316 µM
# [10] = second compound 0.1 µM, first compound 1 µM
# [11] = second compound 0.1 µM, first compound 3.16 µM
# [12] = second compound 0.1 µM, first compound 10 µM
# [13] = second compound 0.316 µM, first compound 0.0316 µM
# [14] = second compound 0.316 µM, first compound 0.1 µM
# [15] = second compound 0.316 µM, first compound 0.316 µM
# [16] = second compound 0.316 µM, first compound 1 µM
# [17] = second compound 0.316 µM, first compound 3.16 µM
# [18] = second compound 0.316 µM, first compound 10 µM
# [19] = second compound 1 µM, first compound 0.0316 µM
# [20] = second compound 1 µM, first compound 0.1 µM
# [21] = second compound 1 µM, first compound 0.316 µM
# [22] = second compound 1 µM, first compound 1 µM
# [23] = second compound 1 µM, first compound 3.16 µM
# [24] = second compound 1 µM, first compound 10 µM
# [25] = second compound 3.16 µM, first compound 0.0316 µM
# [26] = second compound 3.16 µM, first compound 0.1 µM
# [27] = second compound 3.16 µM, first compound 0.316 µM
# [28] = second compound 3.16 µM, first compound 1 µM
# [29] = second compound 3.16 µM, first compound 3.16 µM
# [30] = second compound 3.16 µM, first compound 10 µM
# [31] = second compound 10 µM, first compound 0.0316 µM
# [32] = second compound 10 µM, first compound 0.1 µM
# [33] = second compound 10 µM, first compound 0.316 µM
# [34] = second compound 10 µM, first compound 1 µM
# [35] = second compound 10 µM, first compound 3.16 µM
# [36] = second compound 10 µM, first compound 10 µM
# 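Also: spheroids exposed to agents for 7 days before readout.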
# 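For viability, T/C in this document: percent viability relative to DMSO vehicle control wells taken as 100%.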
smiles,measurement,setting,value
CC(C)(O)C1CCC(Nc2ccc3ncc(-c4cccc(C(F)(F)F)c4)n3n2)CC1 (stereo not drawn) + CN(C)c1ccc(Nc2c3ccc(NC(=O)CCN4CCCC4)cc3nc3cc(NC(=O)CCN4CCCC4)ccc23)cc1,pIC50,second compound 0.0316 µM,6.20
same,pIC50,second compound 0.1 µM,6.14
same,pIC50,second compound 0.316 µM,6.19
same,pIC50,second compound 1 µM,6.15
same,pIC50,second compound 3.16 µM,6.23
same,pIC50,second compound 10 µM,6.35
same,"viability, T/C",[1],111%
same,"viability, T/C",[2],106%
same,"viability, T/C",[3],101%
same,"viability, T/C",[4],17%
same,"viability, T/C",[5],0.97%
same,"viability, T/C",[6],1.74%
same,"viability, T/C",[7],96.3%
same,"viability, T/C",[8],104%
same,"viability, T/C",[9],94.7%
same,"viability, T/C",[10],32.7%
same,"viability, T/C",[11],1.16%
same,"viability, T/C",[12],1.76%
same,"viability, T/C",[13],106%
same,"viability, T/C",[14],101%
same,"viability, T/C",[15],91.2%
same,"viability, T/C",[16],24.1%
same,"viability, T/C",[17],1.32%
same,"viability, T/C",[18],2.9%
same,"viability, T/C",[19],93.6%
same,"viability, T/C",[20],102%
same,"viability, T/C",[21],103%
same,"viability, T/C",[22],29.2%
same,"viability, T/C",[23],2.03%
same,"viability, T/C",[24],3.51%
same,"viability, T/C",[25],93.1%
same,"viability, T/C",[26],92.8%
same,"viability, T/C",[27],86.3%
same,"viability, T/C",[28],18.4%
same,"viability, T/C",[29],3.83%
same,"viability, T/C",[30],1.76%
same,"viability, T/C",[31],89.9%
same,"viability, T/C",[32],97.8%
same,"viability, T/C",[33],63.8%
same,"viability, T/C",[34],15.6%
same,"viability, T/C",[35],0.42%
same,"viability, T/C",[36],0.5%
CC1COCCN1c1cc(-c2ccnn2C)c2ccnc(-c3ccn[nH]3)c2n1 (stereo not drawn) + Cc1[nH]c2ccc(F)cc2c1-c1nc2c3cccnc3c3ncccc3c2[nH]1,pIC50,second compound 0.0316 µM,6.65
same,pIC50,second compound 0.1 µM,6.86
same,pIC50,second compound 0.316 µM,6.73
same,pIC50,second compound 1 µM,6.77
same,pIC50,second compound 3.16 µM,6.85
same,pIC50,second compound 10 µM,6.85
same,"viability, T/C",[1],96.6%
same,"viability, T/C",[2],70.7%
same,"viability, T/C",[3],41.7%
same,"viability, T/C",[4],25.1%
same,"viability, T/C",[5],30.2%
same,"viability, T/C",[6],20.1%
same,"viability, T/C",[7],97.8%
same,"viability, T/C",[8],56.3%
same,"viability, T/C",[9],34.1%
same,"viability, T/C",[10],25.2%
same,"viability, T/C",[11],24.9%
same,"viability, T/C",[12],19.9%
same,"viability, T/C",[13],91.5%
same,"viability, T/C",[14],62.1%
same,"viability, T/C",[15],40%
same,"viability, T/C",[16],27.7%
same,"viability, T/C",[17],22.6%
same,"viability, T/C",[18],23.9%
same,"viability, T/C",[19],91.5%
same,"viability, T/C",[20],63%
same,"viability, T/C",[21],33.6%
same,"viability, T/C",[22],32.2%
same,"viability, T/C",[23],22.9%
same,"viability, T/C",[24],24.7%
same,"viability, T/C",[25],91.9%
same,"viability, T/C",[26],57.9%
same,"viability, T/C",[27],30.2%
same,"viability, T/C",[28],26.1%
same,"viability, T/C",[29],21.2%
same,"viability, T/C",[30],17.9%
same,"viability, T/C",[31],90.1%
same,"viability, T/C",[32],50%
same,"viability, T/C",[33],40.3%
same,"viability, T/C",[34],31.5%
same,"viability, T/C",[35],22.6%
same,"viability, T/C",[36],16.4%
CC1COCCN1c1cc(C2(S(C)(=N)=O)CC2)nc(-c2ccnc3[nH]ccc23)n1 (stereo not drawn) + Cc1[nH]c2ccc(F)cc2c1-c1nc2c3cccnc3c3ncccc3c2[nH]1,pIC50,second compound 0.0316 µM,5.03
same,pIC50,second compound 0.1 µM,5.20
same,pIC50,second compound 0.316 µM,5.15
same,pIC50,second compound 1 µM,5.15
same,pIC50,second compound 3.16 µM,5.22
same,pIC50,second compound 10 µM,5.24
same,"viability, T/C",[1],109%
same,"viability, T/C",[2],108%
same,"viability, T/C",[3],104%
same,"viability, T/C",[4],96.1%
same,"viability, T/C",[5],81.5%
same,"viability, T/C",[6],47.2%
same,"viability, T/C",[7],105%
same,"viability, T/C",[8],116%
same,"viability, T/C",[9],104%
same,"viability, T/C",[10],110%
same,"viability, T/C",[11],69.2%
same,"viability, T/C",[12],37.6%
same,"viability, T/C",[13],92.6%
same,"viability, T/C",[14],110%
same,"viability, T/C",[15],99.8%
same,"viability, T/C",[16],101%
same,"viability, T/C",[17],69.7%
same,"viability, T/C",[18],41.3%
same,"viability, T/C",[19],90.7%
same,"viability, T/C",[20],110%
same,"viability, T/C",[21],102%
same,"viability, T/C",[22],95.5%
same,"viability, T/C",[23],81.5%
same,"viability, T/C",[24],36.1%
same,"viability, T/C",[25],107%
same,"viability, T/C",[26],93.6%
same,"viability, T/C",[27],92.2%
same,"viability, T/C",[28],98.7%
same,"viability, T/C",[29],69.5%
same,"viability, T/C",[30],35%
same,"viability, T/C",[31],119%
same,"viability, T/C",[32],105%
same,"viability, T/C",[33],93.3%
same,"viability, T/C",[34],95.1%
same,"viability, T/C",[35],68.4%
same,"viability, T/C",[36],32.5%
COc1ccc([C@@H](O)c2cc(-c3ncnc4cc(N5CCOCC5)ccc34)c(F)cc2Cl)nn1 + Cc1[nH]c2ccc(F)cc2c1-c1nc2c3cccnc3c3ncccc3c2[nH]1,pIC50,second compound 0.0316 µM,< 5.00
same,pIC50,second compound 0.1 µM,< 5.00
same,pIC50,second compound 0.316 µM,< 5.00
same,pIC50,second compound 1 µM,< 5.00
same,pIC50,second compound 3.16 µM,< 5.00
same,pIC50,second compound 10 µM,5.06
same,"viability, T/C",[1],106%
same,"viability, T/C",[2],108%
same,"viability, T/C",[3],101%
same,"viability, T/C",[4],105%
same,"viability, T/C",[5],106%
same,"viability, T/C",[6],53.6%
same,"viability, T/C",[7],108%
same,"viability, T/C",[8],104%
same,"viability, T/C",[9],110%
same,"viability, T/C",[10],104%
same,"viability, T/C",[11],104%
same,"viability, T/C",[12],58.4%
same,"viability, T/C",[13],104%
same,"viability, T/C",[14],111%
same,"viability, T/C",[15],111%
same,"viability, T/C",[16],111%
same,"viability, T/C",[17],111%
same,"viability, T/C",[18],61%
same,"viability, T/C",[19],101%
same,"viability, T/C",[20],99.2%
same,"viability, T/C",[21],104%
same,"viability, T/C",[22],96.8%
same,"viability, T/C",[23],90.2%
same,"viability, T/C",[24],72.5%
same,"viability, T/C",[25],96.7%
same,"viability, T/C",[26],99.2%
same,"viability, T/C",[27],90%
same,"viability, T/C",[28],97.8%
same,"viability, T/C",[29],97.4%
same,"viability, T/C",[30],51.2%
same,"viability, T/C",[31],90.3%
same,"viability, T/C",[32],101%
same,"viability, T/C",[33],97.4%
same,"viability, T/C",[34],117%
same,"viability, T/C",[35],100%
same,"viability, T/C",[36],43.2%
